Experimental data published in US6989371B1, “Bombesin analogs for treatment of cancer” (Dabur Research Foundation, priority 1996, dated 2006).
Non-standard residues stand in square brackets, D forms with d. Residues, ends and D or L forms follow the SMILES beside them. *: point of attachment. Octanoyl = CCCCCCCC(=O)*; Aib = CC(C)(N)C(=O)O

Key:
[1] = tested on: A549 (lung); assay: MTT cytotoxicity assay, 72 hours (Example 13); format: cell-based, human
Experimental: (§1) The cytotoxic activity of other synthesized bombesin analogs was tested on eight human tumor cell lines namely HT-29, SW620, PTC (all colon), PA-1 (ovary), A549 (lung), HBL100(breast), MOLT-4 (leukemia) and DU145 (prostate). The tumor cells were collected at exponential growth phase and resuspended in medium (1.5×10^6) cells/ml in RPMI 1640 containing 10% FBS). 150 μl of medium was added to the wells of a 96-well tissue culture plate (Nunc, Denmark) followed by 30 μl of cell suspension. The plate was left in incubator (37° C., 5% CO2 overnight. 20 μl of the peptide (10^−7×10^×10M concentration) was added to marked wells of the 96-well plate. Each concentration was plated in cells served as blanks. A total volume of 200 μl was ensured in each well and plate was left in incubator (37° C., 5% CO2). After 72 hours of incubation an MTT assay was performed and percentage cytotoxicity was calculated with respect to control cells. Following tables show the cytotoxicity achieved on various cell lines at different concentrations.

[2] = tested on: DU145 (prostate); assay: MTT cytotoxicity assay, 72 hours (Example 13); format: cell-based, human
Experimental: as §1

[3] = tested on: HBL100 (breast); assay: MTT cytotoxicity assay, 72 hours (Example 13); format: cell-based, human; conditions: HBL
Experimental: as §1

[4] = tested on: HT-29 (colon); assay: MTT cytotoxicity assay, 72 hours (Example 13); format: cell-based, human
Experimental: as §1

[5] = tested on: MOLT-4 (leukemia); assay: MTT cytotoxicity assay, 72 hours (Example 13); format: cell-based, human
Experimental: as §1

[6] = tested on: PA-1 (ovary); assay: MTT cytotoxicity assay, 72 hours (Example 13); format: cell-based, human
Experimental: as §1

[7] = tested on: PTC (colon); assay: MTT cytotoxicity assay, 72 hours (Example 13); format: cell-based, human
Experimental: as §1

[8] = tested on: SW620 (colon); assay: MTT cytotoxicity assay, 72 hours (Example 13); format: cell-based, human
Experimental: as §1

[9] = tested on: HBL 100 (Breast); assay: MTT cytotoxicity assay, 48 hours (Example 14); format: cell-based, human
Experimental: (§2) The cytotoxic effect of peptide sequences SEQ ID NO: 9, SEQ ID NO: 10, SEQ ID NO: 11 and SEQ ID NO: 12, were studied by MTT assay which is based on the principle of uptake of MTT[3-[4,5-dimethylthiazol-2-yl]-2,5-diphenyl tetrazolium bromide], a tetrazolium salt by the metabolically active cells where it is metabolized by active mitochondria into a blue colored formazan product which can be read spectrophotometrically. Tumor cells KB (oral squamous). HuTu80 (Stomach), PTC and SW620 (colon), U87MG (Glioblastoma), HBL 100. (Breast), HeP2 (laryngeal) and L132 (Lung) were incubated with the peptide analogs for 48 hours at 37° C. in a 96-well culture plate, followed by the addition of 100 μl MTT and further incubation of 1 hour. The formazon crystals formed inside the cells were dissolved with a detergent comprising 10% Sodium dodecyl sulfate and 0.01 N HCl and optical density read on a multiscan ELISA reader. The optical density was directly proportional to the number of proliferating and metabolically active cells.

[10] = tested on: HuTu80 (Stomach); assay: MTT cytotoxicity assay, 48 hours (Example 14); format: cell-based, human
Experimental: as §2

[11] = tested on: KB (oral squamous); assay: MTT cytotoxicity assay, 48 hours (Example 14); format: cell-based, human
Experimental: as §2

[12] = tested on: PTC (colon); assay: MTT cytotoxicity assay, 48 hours (Example 14); format: cell-based, human
Experimental: as §2

[13] = tested on: SW620 (colon); assay: MTT cytotoxicity assay, 48 hours (Example 14); format: cell-based, human
Experimental: as §2

[14] = tested on: HeP2 (laryngeal); assay: MTT cytotoxicity assay, 48 hours (Example 14); format: cell-based
Experimental: as §2

[15] = tested on: L132 (Lung); assay: MTT cytotoxicity assay, 48 hours (Example 14); format: cell-based
Experimental: as §2

[16] = tested on: U87MG (Glioblastoma); assay: MTT cytotoxicity assay, 48 hours (Example 14); format: cell-based
Experimental: as §2

**Q.** CC(C)C[C@H](NC(=O)[C@H](Cc1c[nH]cn1)NC(=O)C(C)(C)NC(=O)[C@@H](NC(=O)[C@H](C)NC(=O)[C@@H](Cc1c[nH]c2ccccc12)NC(=O)[C@H](CCC(N)=O)NC(=O)[C@H](N)Cc1ccccc1)C(C)C)C(N)=O [SEQ ID: 5, D-Phe-Gln-D-Trp-Ala-Val-Aib-His-Leu-NH2] (H-[dF]Q[dW]AV[Aib]HL-NH2; N-terminus assumed) was tested. Which “Percent Cytotoxicity” value ([1]; A549, 1 nM) did it give?
**A.** The value was 20.2 ± 4.2%.

**Q.** What about the “Percent Cytotoxicity” value ([1]; A549, 10 nM) of the same molecule?
**A.** The value was 22.2 ± 3.1%.

**Q.** And the “Percent Cytotoxicity” value ([1]; A549, 100 nM)?
**A.** Its value is 30.3 ± 4.3%.

**Q.** What about the “Percent Cytotoxicity” value ([1]; A549, 100 PM) of the same molecule?
**A.** Its value is 25.2 ± 5.6%.

**Q.** What about the “Percent Cytotoxicity” value ([2]; DU145, 1 nM) of the same molecule?
**A.** Its value is 10.6 ± 0.9%.

**Q.** And the “Percent Cytotoxicity” value ([2]; DU145, 10 nM)?
**A.** Its value is 22.0 ± 3.4%.

**Q.** What about the “Percent Cytotoxicity” value ([2]; DU145, 100 nM) of the same molecule?
**A.** The value was 32.3 ± 3.8%.

**Q.** What about the “Percent Cytotoxicity” value ([2]; DU145, 100 PM) of the same molecule?
**A.** Its value is 29.3 ± 2.9%.

**Q.** And the “Percent Cytotoxicity” value ([3]; 1 nM)?
**A.** The value was 31.6 ± 5.3%.

**Q.** And the “Percent Cytotoxicity” value ([3]; 10 nM)?
**A.** Its value is 16.7 ± 3.6%.

**Q.** And the “Percent Cytotoxicity” value ([3]; 100 nM)?
**A.** The value was 19.4 ± 4.5%.

**Q.** What about the “Percent Cytotoxicity” value ([3]; 100 PM) of the same molecule?
**A.** Its value is 19.3 ± 2.7%.

**Q.** And the “Percent Cytotoxicity” value ([4]; HT29, 1 nM)?
**A.** Its value is 27.9 ± 2.9%.

**Q.** What about the “Percent Cytotoxicity” value ([4]; HT29, 10 nM) of the same molecule?
**A.** Its value is 44.4 ± 4.0%.

**Q.** And the “Percent Cytotoxicity” value ([4]; HT29, 100 nM)?
**A.** Its value is 35.7 ± 2.8%.

**Q.** And the “Percent Cytotoxicity” value ([4]; HT29, 100 PM)?
**A.** The value was 42.0 ± 2.0%.

**Q.** What about the “Percent Cytotoxicity” value ([5]; MOLT4, 1 nM) of the same molecule?
**A.** Its value is 6.4 ± 0.2%.

**Q.** What about the “Percent Cytotoxicity” value ([5]; MOLT4, 10 nM) of the same molecule?
**A.** Its value is 4.3 ± 0.6%.

**Q.** And the “Percent Cytotoxicity” value ([5]; MOLT4, 100 nM)?
**A.** Its value is “NIL”.

**Q.** And the “Percent Cytotoxicity” value ([5]; MOLT4, 100 PM)?
**A.** Its value is 8.7 ± 0.6%.

**Q.** And the “Percent Cytotoxicity” value ([6]; PA-1, 1 nM)?
**A.** Its value is 16.0 ± 3.9%.

**Q.** And the “Percent Cytotoxicity” value ([6]; PA-1, 10 nM)?
**A.** The value was 20.9 ± 5.3%.

**Q.** What about the “Percent Cytotoxicity” value ([6]; PA-1, 100 nM) of the same molecule?
**A.** Its value is 8.8 ± 1.9%.

**Q.** And the “Percent Cytotoxicity” value ([6]; PA-1, 100 PM)?
**A.** The value was 25.6 ± 6.3%.

**Q.** What about the “Percent Cytotoxicity” value ([7]; 1 nM) of the same molecule?
**A.** The value was 23.0 ± 4.2%.

**Q.** What about the “Percent Cytotoxicity” value ([7]; 10 nM) of the same molecule?
**A.** The value was 15.9 ± 2.4%.

**Q.** And the “Percent Cytotoxicity” value ([7]; 100 nM)?
**A.** Its value is 20.4 ± 4.2%.

**Q.** What about the “Percent Cytotoxicity” value ([7]; 100 PM) of the same molecule?
**A.** Its value is 13.9 ± 2.2%.

**Q.** And the “Percent Cytotoxicity” value ([8]; SW620, 1 nM)?
**A.** Its value is 29.7 ± 4.2%.

**Q.** What about the “Percent Cytotoxicity” value ([8]; SW620, 10 nM) of the same molecule?
**A.** Its value is 30.1 ± 4.0%.

**Q.** What about the “Percent Cytotoxicity” value ([8]; SW620, 100 nM) of the same molecule?
**A.** Its value is 25.6 ± 4.2%.

**Q.** And the “Percent Cytotoxicity” value ([8]; SW620, 100 PM)?
**A.** The value was 38.0 ± 3.8%.

**Q.** Which results are given for CCCCCCCC(=O)N[C@H](Cc1ccccc1)C(=O)N[C@@H](CCC(N)=O)C(=O)N[C@@H](Cc1c[nH]c2ccccc12)C(=O)N[C@@H](C)C(=O)N[C@H](C(=O)NC(C)(C)C(=O)N[C@@H](Cc1c[nH]cn1)C(=O)N[C@@H](CC(C)C)C(N)=O)C(C)C [SEQ ID: 12, Octanoyl-D-Phe-Gln-Trp-Ala-Val-Aib-His-Leu-NH2] (Octanoyl-[dF]QWAV[Aib]HL-NH2)?
**A.** Percentage cytotoxicity ([9]; HBL100, 10 pM): 29.0 ± 3.8%; Percentage cytotoxicity ([9]; HBL100, 100 pM): 34.7 ± 2.8%; Percentage cytotoxicity ([9]; HBL100, 1 nM): 29.6 ± 0.4%; Percentage cytotoxicity ([9]; HBL100, 10 nM): 27.7 ± 1.5%; Percentage cytotoxicity ([9]; HBL100, 100 nM): 23.6 ± 2.7%; Percentage cytotoxicity ([9]; HBL100, 1 μM): 11.8 ± 1.1%; Percentage cytotoxicity ([10]; HuTu80, 10 pM): 8.3 ± 1.1%; Percentage cytotoxicity ([10]; HuTu80, 100 pM): 13.0 ± 0.7%; Percentage cytotoxicity ([10]; HuTu80, 1 nM): 33.1 ± 4.8%; Percentage cytotoxicity ([10]; HuTu80, 10 nM): 23.4 ± 0.5%; Percentage cytotoxicity ([10]; HuTu80, 100 nM): 21.8 ± 2.1%; Percentage cytotoxicity ([10]; HuTu80, 1 μM): 20.0 ± 3.9%; Percentage cytotoxicity ([11]; 10 pM): 19.3 ± 2.9%; Percentage cytotoxicity ([11]; 100 pM): 19.4 ± 2.9%; Percentage cytotoxicity ([11]; 1 nM): 26.6 ± 4.9%; Percentage cytotoxicity ([11]; 10 nM): 18.6 ± 2.1%; Percentage cytotoxicity ([11]; 100 nM): 11.1 ± 3.1%; Percentage cytotoxicity ([11]; 1 μM): 12.4 ± 1.2%; Percentage cytotoxicity ([12]; 10 pM): 19.5 ± 0.8%; Percentage cytotoxicity ([12]; 100 pM): 18.6 ± 2.4%; Percentage cytotoxicity ([12]; 1 nM): 30.1 ± 4.1%; Percentage cytotoxicity ([12]; 10 nM): 20.7 ± 3.8%; Percentage cytotoxicity ([12]; 100 nM): 16.1 ± 2.5%; Percentage cytotoxicity ([12]; 1 μM): 14.4 ± 2.7%; Percentage cytotoxicity ([13]; SW620, 10 pM): 34.8 ± 0.4%; Percentage cytotoxicity ([13]; SW620, 100 pM): 38.4 ± 2.8%; Percentage cytotoxicity ([13]; SW620, 1 nM): 32.2 ± 2.6%; Percentage cytotoxicity ([13]; SW620, 10 nM): 36.1 ± 1.9%; Percentage cytotoxicity ([13]; SW620, 100 nM): 25.3 ± 0.6%; Percentage cytotoxicity ([13]; SW620, 1 μM): 22.6 ± 1.1%; Percentage cytotoxicity ([14]; HeP2, 10 pM): 10.0 ± 0.0%; Percentage cytotoxicity ([14]; HeP2, 100 pM): 24.4 ± 0.1%; Percentage cytotoxicity ([14]; HeP2, 1 nM): 28.9 ± 0.5%; Percentage cytotoxicity ([14]; HeP2, 10 nM): 29.2 ± 1.1%; Percentage cytotoxicity ([14]; HeP2, 100 nM): 25.6 ± 0.4%; Percentage cytotoxicity ([14]; HeP2, 1 μM): 28.7 ± 0.8%; Percentage cytotoxicity ([15]; L132, 10 pM): 0.0 ± 0.0%; Percentage cytotoxicity ([15]; L132, 100 pM): 23.1 ± 0.7%; Percentage cytotoxicity ([15]; L132, 1 nM): 26.7 ± 0.4%; Percentage cytotoxicity ([15]; L132, 10 nM): 26.4 ± 0.3%; Percentage cytotoxicity ([15]; L132, 100 nM): 22.0 ± 0.1%; Percentage cytotoxicity ([15]; L132, 1 μM): 22.2 ± 0.2%; Percentage cytotoxicity ([16]; 10 pM): 13.1 ± 2.2%; Percentage cytotoxicity ([16]; 100 pM): 22.1 ± 3.8%; Percentage cytotoxicity ([16]; 1 nM): 28.3 ± 1.9%; Percentage cytotoxicity ([16]; 10 nM): 27.5 ± 2.9%; Percentage cytotoxicity ([16]; 100 nM): 13.1 ± 2.3%; Percentage cytotoxicity ([16]; 1 μM): 15.4 ± 3.1%
